Activity calls are given as the source filed them. The rule behind the calls is not given here.
What was measured:
[1] = target: T1, Nuclear receptor subfamily 1 group I member 2 (Homo sapiens, UniProt O75469); experiment: Displacement of BODIPY FL vindoline from GST-tagged human PXR LBD incubated for 60 mins by TR-FRET assay
T1 sequence (O75469 whole entry): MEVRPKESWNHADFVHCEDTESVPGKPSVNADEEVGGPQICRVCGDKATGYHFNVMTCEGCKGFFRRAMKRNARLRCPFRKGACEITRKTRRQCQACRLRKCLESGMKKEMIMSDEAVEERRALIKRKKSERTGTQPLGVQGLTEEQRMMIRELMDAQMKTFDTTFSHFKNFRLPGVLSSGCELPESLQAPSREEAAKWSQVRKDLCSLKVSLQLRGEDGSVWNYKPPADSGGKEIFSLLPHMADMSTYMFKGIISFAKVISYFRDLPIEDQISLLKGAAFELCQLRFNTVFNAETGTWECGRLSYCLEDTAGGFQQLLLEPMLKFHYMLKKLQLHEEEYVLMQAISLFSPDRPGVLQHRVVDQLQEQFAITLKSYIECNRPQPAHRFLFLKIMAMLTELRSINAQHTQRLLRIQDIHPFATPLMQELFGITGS

[2] = target: T2, PXR (NR1I2) (Homo sapiens, UniProt O75469); experiment: Displacement of BODIPY FL vindoline from GST-tagged human PXR LBD at 10 uM incubated for 60 mins by TR-FRET assay relative to control; settings: GST-tagged human PXR LBD (recombinant protein), probe BODIPY FL vindoline
T2 sequence (O75469 whole entry): T1 sequence (O75469 whole entry)

[3] = target: T1, Nuclear receptor subfamily 1 group I member 2; experiment: Agonist activity at human PXR expressed in HepG2 cells co-expressing luciferase gene under control of CYP3A4 promoter incubated for 24 hrs by luciferase reporter assay
[4] = target: T2, PXR (NR1I2); experiment: Agonist activity at human PXR expressed in HepG2 cells co-expressing luciferase gene under control of CYP3A4 promoter at 10 uM incubated for 24 hrs by luciferase reporter assay relative to control
[5] = target: T1, Nuclear receptor subfamily 1 group I member 2; experiment: Antagonist activity at human PXR expressed in HepG2 cells co-expressing luciferase gene under control of CYP3A4 promoter incubated for 24 hrs in presence of 5 uM rifampicin by luciferase reporter assay
[6] = target: T2, PXR (NR1I2); experiment: Inhibition of human PXR expressed in HepG2 cells co-expressing luciferase gene under control of CYP3A4 promoter at 10 uM incubated for 24 hrs in presence of 5 uM rifampicin by luciferase reporter assay relative to control; type: cell-based
[7] = target: T3, Nuclear receptor subfamily 1 group I member 2 (Mus musculus, UniProt O54915); experiment: Antagonist activity at mouse PXR in presence of PCN by luciferase reporter assay
T3 sequence (O54915 whole entry): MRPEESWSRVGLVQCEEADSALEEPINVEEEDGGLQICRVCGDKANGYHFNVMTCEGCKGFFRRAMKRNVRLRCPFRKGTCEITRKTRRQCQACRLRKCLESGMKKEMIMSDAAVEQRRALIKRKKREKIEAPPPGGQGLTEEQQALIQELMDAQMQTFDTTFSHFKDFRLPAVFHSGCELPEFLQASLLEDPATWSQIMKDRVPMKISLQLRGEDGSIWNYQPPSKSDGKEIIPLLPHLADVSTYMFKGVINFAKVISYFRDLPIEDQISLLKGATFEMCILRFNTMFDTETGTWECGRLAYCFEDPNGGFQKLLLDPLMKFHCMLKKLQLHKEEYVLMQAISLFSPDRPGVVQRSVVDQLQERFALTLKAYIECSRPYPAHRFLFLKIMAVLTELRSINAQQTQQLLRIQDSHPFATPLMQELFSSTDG

[8] = target: T3, Nuclear receptor subfamily 1 group I member 2; experiment: Agonist activity at mouse PXR by luciferase reporter assay; type: ADME
[9] = test system: HepG2; experiment: Cytotoxicity against human HepG2 cells co-expressing luciferase gene under control of CYP3A4 promoter measured after 24 hrs by CellTiter-Glo luminescent cell viability assay; type: ADME, cell-based; settings: for Activity: human, hepg2, 24 h, time 24 hrs
[10] = test system: constitutive androstane receptor, NR1I3 (Homo sapiens); experiment: Agonist activity at human CAR by luciferase reporter assay
[11] = target: T4, Vitamin D3 receptor (Homo sapiens) (UniProt P11473); experiment: Agonist activity at human VDR expressed in HEK293T cells by luciferase reporter assay; type: cell-based
T4 sequence (whole entry): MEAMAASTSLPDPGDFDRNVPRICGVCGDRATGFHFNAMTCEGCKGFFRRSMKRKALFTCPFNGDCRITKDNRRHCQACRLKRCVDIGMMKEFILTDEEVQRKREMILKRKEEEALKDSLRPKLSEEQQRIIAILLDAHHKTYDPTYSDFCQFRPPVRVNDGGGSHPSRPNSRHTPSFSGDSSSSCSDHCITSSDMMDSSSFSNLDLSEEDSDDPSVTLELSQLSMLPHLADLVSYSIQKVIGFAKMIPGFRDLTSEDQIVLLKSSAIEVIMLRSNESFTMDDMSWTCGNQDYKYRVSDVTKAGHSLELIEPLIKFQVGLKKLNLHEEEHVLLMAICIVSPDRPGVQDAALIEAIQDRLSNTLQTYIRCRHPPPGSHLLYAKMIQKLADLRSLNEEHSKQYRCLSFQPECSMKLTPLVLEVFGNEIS

[12] = target: T4, Vitamin D3 receptor (Homo sapiens); experiment: Antagonist activity at human VDR expressed in HEK293T cells in presence of 1alpha,25-dihydroxyvitamin D3 by luciferase reporter assay; type: cell-based
[13] = target: T5, Bile acid receptor (Homo sapiens) (UniProt Q96RI1); experiment: Agonist activity at human FXR expressed in HEK293T cells by luciferase reporter assay; type: cell-based
T5 sequence (whole entry): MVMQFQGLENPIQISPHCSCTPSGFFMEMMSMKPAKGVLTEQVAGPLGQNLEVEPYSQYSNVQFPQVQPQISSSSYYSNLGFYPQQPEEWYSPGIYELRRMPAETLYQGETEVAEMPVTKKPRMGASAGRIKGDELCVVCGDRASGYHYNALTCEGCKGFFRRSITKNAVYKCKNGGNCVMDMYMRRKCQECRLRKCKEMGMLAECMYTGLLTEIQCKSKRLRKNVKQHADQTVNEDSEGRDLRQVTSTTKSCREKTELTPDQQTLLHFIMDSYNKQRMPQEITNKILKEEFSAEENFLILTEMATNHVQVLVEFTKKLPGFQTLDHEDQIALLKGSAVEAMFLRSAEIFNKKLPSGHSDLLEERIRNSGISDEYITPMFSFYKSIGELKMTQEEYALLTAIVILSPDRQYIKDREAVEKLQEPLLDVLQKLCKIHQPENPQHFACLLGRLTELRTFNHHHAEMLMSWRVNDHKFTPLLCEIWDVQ

[14] = target: T5, Bile acid receptor (Homo sapiens); experiment: Antagonist activity at human FXR expressed in HEK293T cells in presence of GW4064 by luciferase reporter assay; type: cell-based

| IC50 [1] | inhibition at 1 h, 10 µM [2] | EC50 [3] | activity at 24 h, 10 µM [4] | IC50 [5] | inhibition at 24 h, 10 µM [6] | Activity [7] | Activity [8] | Activity [10] | Activity [11] | Activity [12] | Activity [13] | Activity [14] | Structure (SMILES) | Activity [9] | IC50 ([9]; Homo sapiens, HepG2, 24 h) |
| --- | --- | --- | --- | --- | --- | --- | --- | --- | --- | --- | --- | --- | --- | --- | --- |
| 0.3 µM | 97% | 0.26 µM | 88% | 2.4 µM | 38% |  |  |  |  |  |  |  | COc1ccc(OC)c(-n2nnc(S(=O)(=O)c3ccc(C(C)(C)C)cc3)c2C#N)c1 |  |  |
| 0.53 µM | 103% | 0.8 µM | 56% | 1 µM | 53% |  |  |  |  |  |  |  | COc1ccccc1-n1nnc(S(=O)(=O)c2ccc(C(C)(C)C)cc2)c1C |  |  |
| 0.5 µM | 93% | 0.11 µM | 42% | 4.4 µM | 78% |  |  |  |  |  |  |  | COc1ccc(Cl)cc1-n1nnc(S(=O)(=O)c2ccc(C(C)(C)C)cc2)c1N |  |  |
| 1.07 µM | 48% | 1.6 µM | 58% | 4 µM | 33% |  |  |  |  |  |  |  | COc1cc(C#N)c(C)cc1-n1nnc(S(=O)(=O)c2ccc(C(C)(C)C)cc2)c1C |  |  |
|  |  |  |  |  |  | Not Active | Not Active | inactive |  |  |  |  | CCc1c(S(=O)(=O)c2ccc(C(C)(C)C)cc2)nnn1-c1cc(OC)ccc1OC | Non-Toxic |  |
| 1.5 µM | 64% | 1.6 µM | 75% | 6 µM | 32% |  |  |  |  |  |  |  | COC(=O)c1cc(OC)c(-n2nnc(S(=O)(=O)c3ccc(C(C)(C)C)cc3)c2C)cc1C |  |  |
| 1.2 µM | 87% | 1 µM | 33% | 2.3 µM | 64% |  |  |  |  |  |  |  | COc1cc(C)c(Cl)cc1-n1nnc(S(=O)(=O)c2ccc(C(C)(C)C)cc2)c1C |  |  |
| 0.4 µM | 80% | 0.24 µM | 37% | 0.7 µM | 70% | Not Active |  | inactive | inactive | inactive | inactive | inactive | COc1ccc(F)cc1-n1nnc(S(=O)(=O)c2ccc(C(C)(C)C)cc2)c1C | Non-Toxic |  |
| 1.4 µM | 98% | 1.4 µM | 35% | 3.4 µM | 71% |  |  |  |  |  |  |  | COc1ccc(OC)c(-n2cc(S(=O)(=O)c3ccc(C(C)(C)C)cc3)nn2)c1 |  |  |
| 0.7 µM | 71% | 0.8 µM | 51% | 2 µM | 57% |  |  |  |  |  |  |  | COc1cc(Cl)c(C)cc1-n1nnc(S(=O)(=O)c2ccc(C(C)(C)C)cc2)c1C |  |  |
| 0.28 µM | 88% | 0.16 µM | 73% | 3.3 µM | 46% |  |  |  |  |  |  |  | COc1ccc(C)cc1-n1nnc(S(=O)(=O)c2ccc(C(C)(C)C)cc2)c1N |  |  |
| 0.18 µM | 85% | 0.43 µM | 53% | 1.7 µM | 52% |  |  |  |  |  |  |  | COc1ccc(OC)c(-n2nnc(S(=O)(=O)c3ccc(C(C)(C)C)cc3)c2N)c1 |  |  |
| 0.5 µM | 98% | 0.6 µM | 69% | 5 µM | 44% |  |  |  |  |  |  |  | COc1ccc(C)cc1-n1cc(S(=O)(=O)c2ccc(C(C)(C)C)cc2)nn1 |  |  |
| 4 µM | 87% | 1 µM | 24% | 2 µM | 72% |  |  |  |  |  |  |  | COc1cc(-n2nnc(S(=O)(=O)c3ccc(C(C)(C)C)cc3)c2C)c(OC)cc1F |  |  |
| 1.4 µM | 95% | 0.81 µM | 82% | 2 µM | 64% |  |  |  |  |  |  |  | COc1ccc(CO)cc1-n1nnc(S(=O)(=O)c2ccc(C(C)(C)C)cc2)c1C |  |  |
| 1.4 µM | 80% | 0.4 µM | 77% | 9 µM | 111% |  |  |  |  |  |  |  | COc1cc(C(C)=O)c(C)cc1-n1nnc(S(=O)(=O)c2ccc(C(C)(C)C)cc2)c1C |  | 16.5 µM |
| 0.6 µM | 40% | 1 µM | 49% | 3.4 µM | 44% |  |  |  |  |  |  |  | COc1cc(C#N)c(Cl)cc1-n1nnc(S(=O)(=O)c2ccc(C(C)(C)C)cc2)c1C |  |  |
| 0.061 µM | 90% | 0.08 µM | 105% |  |  | Not Active | Not Active | inactive | inactive | inactive | inactive | inactive | COc1ccc(Cl)cc1-n1nnc(S(=O)(=O)c2ccc(C(C)(C)C)cc2)c1C#N | Non-Toxic |  |

From ChEMBL document CHEMBL4834393, “Building a Chemical Toolbox for Human Pregnane X Receptor Research: Discovery of Agonists, Inverse Agonists, and Antagonists Among Analogs Based on the Unique Chemical Scaffold of SPA70” (J Med Chem, 2021)
